Measurements as given in US10246487B2, “Azaindoline compounds as granzyme B inhibitors” (viDA Therapeutics Inc., priority 2014, dated 2019).

What was measured:
GzmB [1] = molecular target: T1, GzmB (Homo sapiens, UniProt P10144); test: Inhibition of fibronectin cleavage by GzmB; assay type: biochemical; details: 20 nM granzyme B; for inhibition at 0.62 µM: 0.62 uM inhibitor, read-out: Percent Inhibition at Inhibitor Concentration 0.62 uM; for inhibition at 5.56 µM: 5.56 uM inhibitor, read-out: Percent Inhibition at Inhibitor Concentration 5.56 uM; for inhibition at 50 µM: 50 uM inhibitor, read-out: Percent Inhibition at Inhibitor Concentration 50 uM
Procedure: Black, 96 well high-binding assay plates (Griener Bio-one) were treated overnight at 4° C. with 40 uL of 8 ug/mL Hilyte Fluor 488 labeled Fibronectin (Cytoskeleton, Inc). After fibronectin coating, plates were washed 3 times in buffer (20 mM Tris-HCl, pH 7.4, 20 mM NaCl) then once with granzyme B assay buffer (50 mM HEPES, pH 7.5, 0.1% CHAPS). After washing, 50 μL of granzyme B assay buffer was added to each fibronectin-coated well. In a separate non-binding 96 well assay plate 5 μL of 20× inhibitor serial dilution stocks were added to 45 μL of 2.22× GzmB mix to establish inhibition (enzyme/inhibitor mixes were all prepared in granzyme B assay buffer and were incubated first at room temperature for 20 minutes, then at 30° C. for another 10 minutes). After incubation, 50 μL of this 2× enzyme/inhibitor mix was added to the corresponding coated well to initiate fibronectin cleavage (20 nM final granzyme B concentration, 8-point inhibitor dilution series starting at 50 uM). The assay was conducted at 30° C. in the TECAN plate reader (TECAN INFINITE® M1000 Pro), which was programmed to monitor the kinetic fluorescence polarization signal (filter set Ex/Em 470 nm/527 nm) with readings taken every minute, for 1 hour. Proteolytic activity was evaluated as the rate of fluorescence enhancement in the parallel emission over the linear range of the reaction. % Inhibition values were calculated from assay controls and the resulting date is shown in Table 7.

GzmB [2] = molecular target: T1, GzmB; test: Inhibition of cell detachment by GzmB assay (HDFa fibroblasts, MTS); assay type: cell-based; details: 50 uM inhibitor, 100 nM GzmB, HDFa primary human fibroblasts, 7 hours; read-out: Percent Inhibition of cell detachment at 50uM
Procedure: HDFa primary human fibroblasts were plated at 10 k/well in 200 ul, approximately 20 hrs before treatment. The next day, controls and 100 nM GzmB (recombinant, human) plus or minus inhibitor treatments were prepared in serum-free media. GzmB and inhibitor were incubated for 20 minutes at RT before adding to cells. Before addition, media and serum was removed from the cells and the cells were washed with PBS (1×), using pipettes to prevent disturbing the cells. Treatment preparations (100 ul) were added to the wells and incubated for 7 hours in a tissue culture incubator. After 7 hours, media and treatments were removed and the cells were washed with PBS (1×) to removed detached cells, using pipettes only. Phase pictures were taken then the PBS was removed and replaced with 100 uL of serum-free media and 20 uL of MTS and the cells were allowed to incubate for 3 hours in a cell culture incubator. After 3 hours the absorbance was read at 490 nm and a percent inhibition value for the treatments with inhibitors was determined from the control wells.

T1 sequence (P10144 21-247): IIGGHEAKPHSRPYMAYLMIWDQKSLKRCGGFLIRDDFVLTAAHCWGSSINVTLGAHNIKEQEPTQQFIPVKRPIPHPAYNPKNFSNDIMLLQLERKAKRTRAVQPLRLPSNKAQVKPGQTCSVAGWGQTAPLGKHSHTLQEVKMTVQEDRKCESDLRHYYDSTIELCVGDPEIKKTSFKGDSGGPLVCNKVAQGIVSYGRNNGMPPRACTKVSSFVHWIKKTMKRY

inhibition at 0.62 µM (GzmB [1]) [%] | inhibition at 5.56 µM (GzmB [1]) [%] | inhibition at 50 µM (GzmB [1]) [%] | inhibition at 50 µM (GzmB [2]) [%] | Structure (SMILES)
66 | 82 | 88 | – | CC[C@H](C)[C@H](NC(=O)Cc1nn[nH]n1)C(=O)NCC(=O)N1c2ncccc2C[C@H]1C(=O)NCc1nn[nH]n1 [Example A1, (S)-1-(2-((2S,3S)-2-(2-(2H-tetrazol-5-yl)acetamido)-3-methylpentanamido)acetyl)-N-((2H-tetrazol-5-yl)methyl)-2,3-dihydro-1H-pyrrolo[2,3-B]pyridine-2-carboxamide]
45 | 79 | 98 | 100 | CC[C@H](C)[C@H](NC(=O)CCC(=O)O)C(=O)N[C@@H](CCC(=O)O)C(=O)N1c2ncccc2C[C@H]1C(=O)NCc1nn[nH]n1 [Example C4, (S)-5-((S)-2(((2H-tetrazol-5-yl)methyl)carbamoyl)-2,3-dihydro-1H-pyrrolo[2,3-B]pyridin-1-yl)-4-((2S,3S)-2-(3-carboxypropanamido)-3-methylpentanamido)-5-oxopentanoic acid]
56 | 77 | 94 | – | CC(C)[C@H](NC(=O)CCC(=O)O)C(=O)N[C@@H](CCC(=O)O)C(=O)N1c2ncccc2C[C@H]1C(=O)NCc1nn[nH]n1 [Example C17, (S)-5-((S)-2-(((2H-tetrazol-5-yl)methyl)carbamoyl)-2,3-dihydro-1H-pyrrolo[2,3-B]pyridin-1-yl)-4-((S)-2-(3-carboxypropanamido)-3-methylbutanamido)-5-oxopentanoic acid]
58 | 81 | 91 | – | CC[C@H](C)[C@H](NC(=O)Cc1ccccc1)C(=O)N[C@@H](CCC(=O)O)C(=O)N1c2ncccc2C[C@H]1C(=O)NCc1nn[nH]n1 [Example C9, (S)-5-((S)-2-(((2H-tetrazol-5-yl)methyl)carbamoyl)-2,3-dihydro-1H-pyrrolo[2,3-B]pyridin-1-yl)-4-((2S,3S)-3-methyl-2-(2-phenylacetamido)pentanamido)-5-oxopentanoic acid]
